According to ChEMBL document CHEMBL3044532, “Integrated control of cotton root rot disease by mixing fungal biocontrol agents and resistance inducers” (2009):

Columns and labels:
Format in all cases: functional
[1] = tested on: Gossypium barbadense; assay: Induction of systemic acquired resistance against Pythium debaryanum AUSB 26351 in Gossypium barbadense seeds assessed as increase of dry weight of seedling under greenhouse condition at 0.05 ml/L after 7 days
[2] = tested on: Gossypium barbadense; assay: Induction of systemic acquired resistance against Pythium debaryanum AUSB 26351 in Gossypium barbadense seeds assessed as reduction of disease index for germination under greenhouse condition at 0.05 ml/L after 7 days relative to infected control; set-up: scale not given: the % may be the effect or the level left
[3] = tested on: Gossypium barbadense; assay: Induction of systemic acquired resistance against Pythium debaryanum AUSB 26351 in Gossypium barbadense seeds assessed as increase of germination under greenhouse condition at 0.05 ml/L after 7 days relative to control
[4] = tested on: Gossypium barbadense; assay: Induction of systemic acquired resistance against Fusarium oxysporum AUSB 26325 in Gossypium barbadense seeds assessed as increase of dry weight of seedling under greenhouse condition at 0.05 ml/L after 7 days
[5] = tested on: Gossypium barbadense; assay: Induction of systemic acquired resistance against Fusarium oxysporum AUSB 26325 in Gossypium barbadense seeds assessed as increase of fresh weight of seedling under greenhouse condition at 0.05 ml/L after 7 days
[6] = tested on: Gossypium barbadense; assay: Induction of systemic acquired resistance against Fusarium oxysporum AUSB 26325 in Gossypium barbadense seeds assessed as reduction of disease index for germination under greenhouse condition at 0.05 ml/L after 7 days relative to infected control; set-up: scale not given: the % may be the effect or the level left
[7] = tested on: Gossypium barbadense; assay: Induction of systemic acquired resistance against Fusarium oxysporum AUSB 26325 in Gossypium barbadense seeds assessed as increase of germination under greenhouse condition at 0.05 ml/L after 7 days relative to control
[8] = tested on: Gossypium barbadense; assay: Induction of systemic acquired resistance against Pythium debaryanum AUSB 26351 in Gossypium barbadense seeds assessed as increase of fresh weight of seedling under greenhouse condition at 0.05 ml/L after 7 days

CSC(=O)c1cccc2nnsc12 [ACIBENZOLAR-S-METHYL]
Activity [1]: 0.2 g
Activity [2]: 60%
Activity [3]: 40%
Activity [4]: 0.9 g
Activity [5]: 8.3 g
Activity [6]: 45.3%
Activity [7]: 40.7%
Activity [8]: 2 g
